Assay results: patent publication US12599582B2, “Pyrrole compounds” (ALIGOS THERAPEUTICS, INC., priority 2019, dated 2026)
pEC50: −log10 of the molar value.

Each compound was assayed on HBV (assay: HBV-DNA Antiviral Assay Using HepG2.2.15 Cells (extracellular HBV DNA by qPCR)). Conditions: Hepatitis B virus; HBV DNA inhibition, HepG2.2.15 cells, extracellular HBV DNA by qPCR; read-out: EC50.
Type: cell-based, hepatitis B virus (HBV)
Outline: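 HepG2.2.15 cells were treated on day 1 with 8 concentrations (4-fold dilutions, duplicate; 0.5% DMSO), with compound-containing medium refreshed on day 4, at 37 °C. On day 7, supernatant HBV DNA was measured by qPCR against a plasmid standard curve, with inhibition normalised between DMSO and ETV controls. EC50/EC90 and CC50 (CellTiter-Glo ATP) came from variable-slope fits.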

First: Cc1c(C(=O)C(=O)NC2(c3ccncc3)CC(F)(F)C2)c(C)n(C)c1C(=O)Nc1ccc(F)c(C(F)(F)F)c1 [Compound 150, 4-[2-[[3,3-difluoro-1-(4-pyridyl)cyclobutyl]amino]-2-oxo-acetyl]-N-[4-fluoro-3-(trifluoromethyl)phenyl]-1,3,5-trimethyl-pyrrole-2-carboxamide]
Second: Cc1c(C(=O)C(=O)NC2(c3ncc[nH]3)COC2)c(C)n(C)c1C(=O)Nc1ccc(F)c(C(F)(F)F)c1 [Compound 155, N-[4-fluoro-3-(trifluoromethyl)phenyl]-4-[2-[[3-(1H-imidazol-2-yl)oxetan-3-yl]amino]-2-oxo-acetyl]-1,3,5-trimethyl-pyrrole-2-carboxamide]
The pEC50 of the first is higher: greater than 9.00 for the first, 8.00 to 9.00 for the second. The first is the more potent here.

Cc1c(C(=O)C(=O)NC2(c3cn[nH]c3)COC2)c(C)n(C)c1C(=O)Nc1ccc(F)c(C#N)c1 [Compound 151, N-(3-cyano-4-fluoro-phenyl)-1,3,5-trimethyl-4-[2-oxo-2-[[3-(1H-pyrazol-4-yl)oxetan-3-yl]amino]acetyl]pyrrole-2-carboxamide] and Cc1c(C(=O)C(=O)NC2(c3c[nH]cn3)COC2)c(C)n(C)c1C(=O)Nc1ccc(F)c(C#N)c1 [Compound 157, N-(3-cyano-4-fluoro-phenyl)-4-[2-[[3-(1H-imidazol-4-yl)oxetan-3-yl]amino]-2-oxo-acetyl]-1,3,5-trimethyl-pyrrole-2-carboxamide] fall in the same range of pEC50: 8.00 to 9.00 for the first, 8.00 to 9.00 for the second.

First: Cc1c(C(=O)C(=O)NC(C)(C)c2ccncn2)c(C)n(C)c1C(=O)Nc1ccc(F)c(C#N)c1 [Compound 152, N-(3-cyano-4-fluoro-phenyl)-1,3,5-trimethyl-4-[2-[(1-methyl-1-pyrimidin-4-yl-ethyl)amino]-2-oxo-acetyl]pyrrole-2-carboxamide]
Second: Cc1c(C(=O)C(=O)NC(C)(C)c2ccncn2)c(C)n(C)c1C(=O)Nc1ccc(F)c(C(F)(F)F)c1 [Compound 153, N-[4-fluoro-3-(trifluoromethyl)phenyl]-1,3,5-trimethyl-4-[2-[(1-methyl-1-pyrimidin-4-yl-ethyl)amino]-2-oxo-acetyl]pyrrole-2-carboxamide]
The pEC50 of the first is lower: 8.00 to 9.00 for the first, greater than 9.00 for the second.

Cc1c(C(=O)C(=O)NC2(c3c[nH]cn3)COC2)c(C)n(C)c1C(=O)Nc1ccc(F)c(C(F)(F)F)c1 [Compound 156, N-[4-fluoro-3-(trifluoromethyl)phenyl]-4-[2-[[3-(1H-imidazol-4-yl)oxetan-3-yl]amino]-2-oxo-acetyl]-1,3,5-trimethyl-pyrrole-2-carboxamide] and Cc1c(C(=O)C(=O)NC2(c3cn[nH]c3)COC2)c(C)n(C)c1C(=O)Nc1ccc(F)c(C(F)(F)F)c1 [Compound 158, N-[4-fluoro-3-(trifluoromethyl)phenyl]-1,3,5-trimethyl-4-[2-oxo-2-[[3-(1H-pyrazol-4-yl)oxetan-3-yl]amino]acetyl]pyrrole-2-carboxamide] cannot be ordered by pEC50: greater than 9.00 for the first, greater than 9.00 for the second.

Cc1c(C(=O)C(=O)NC(C)(C)c2ccc[nH]c2=O)c(C)n(C)c1C(=O)Nc1ccc(F)c(C(F)(F)F)c1 [Compound 159, N-[4-fluoro-3-(trifluoromethyl)phenyl]-1,3,5-trimethyl-4-[2-[[1-methyl-1-(2-oxo-1H-pyridin-3-yl)ethyl]amino]-2-oxo-acetyl]pyrrole-2-carboxamide] and Cc1c(C(=O)C(=O)NC(C)(C)c2ccc[nH]c2=O)c(C)n(C)c1C(=O)Nc1ccc(F)c(C#N)c1 [Compound 161, N-(3-cyano-4-fluoro-phenyl)-1,3,5-trimethyl-4-[2-[[1-methyl-1-(2-oxo-1H-pyridin-3-yl)ethyl]amino]-2-oxo-acetyl]pyrrole-2-carboxamide] fall in the same range of pEC50: 8.00 to 9.00 for the first, 8.00 to 9.00 for the second.

Cc1c(C(=O)C(=O)NC(C)(C)c2ccc3[nH]cnc3c2)c(C)n(C)c1C(=O)Nc1ccc(F)c(C#N)c1 [Compound 160, 4-[2-[[1-(1H-benzimidazol-5-yl)-1-methyl-ethyl]amino]-2-oxo-acetyl]-N-(3-cyano-4-fluoro-phenyl)-1,3,5-trimethyl-pyrrole-2-carboxamide] and Cc1cc(NC(=O)c2c(C)c(C(=O)C(=O)NC(C)(C)c3ccc4[nH]cnc4c3)c(C)n2C)ccc1F [Compound 162, 4-[2-[[1-(1H-benzimidazol-5-yl)-1-methyl-ethyl]amino]-2-oxo-acetyl]-N-(4-fluoro-3-methyl-phenyl)-1,3,5-trimethyl-pyrrole-2-carboxamide] fall in the same range of pEC50: 8.00 to 9.00 for the first, 8.00 to 9.00 for the second.
